Measurements taken from patent US20250064877A1, “COMPOSITION FOR INCREASING MUSCLE STRENGTH CONTAINING COMPLEX EXTRACT OF ANGELICA KEISKEI AND LEAVES OF MORUS ALBA L” (HAMSOA PHARMACEUTICAL CO., LTD., priority 2022, published 2025).

System: MuRF1
Test: Expression of MuRF1 in dexamethasone-induced muscle atrophy rats
Format: in vivo, SD rats
Details: versus increase induced by dexamethasone; MIX 100 mg/kg, PC 320 mg/kg oral; FIG. 7
Excerpt: In the process of treating muscle atrophy, the effects of the composite (extracts) of leaves of mulberry and Angelica keiskei on the expression of MyoD (a factor involved in muscle production) and on the expression of MuRF1 (a factor related to muscle atrophy) were confirmed.

CC(C)(O)CC(=O)O [PC, 3-hydroxy-3-methylbutyric acid]
expression of MuRF1: tended to decrease
